Results reported in ChEMBL document CHEMBL5042556, “Lead Optimization to Advance Protease-Activated Receptor-1 Antagonists in Early Discovery” (J Med Chem, 2022).

Key:
[1] = Plasma protein binding in rat assessed as unbound fraction; format: ADME, cell-free
[2] = Dose normalized AUC in Sprague-Dawley rat at 30 mg/kg, po; format: ADME, organism-based; settings: in vivo
[3] = Unbound clearance in rat at 3 mg/kg, iv; format: ADME, organism-based; settings: in vivo
[4] = Apparent permeability in MDCKII-LE cells; format: ADME, cell-based, Canis lupus familiaris; settings: dog, MDCK
[5] = Unbound volume of distribution in dog at 0.3 mg/kg, iv; format: ADME, organism-based, Canis lupus familiaris; settings: in vivo
[6] = MRT in rat at 3 mg/kg, iv; format: ADME, organism-based; settings: in vivo
[7] = Volume of distribution in rat at 0.3 mg/kg, iv; format: ADME, organism-based; settings: in vivo
[8] = Cmax in Sprague-Dawley rat at 10 mg/kg, po; format: ADME, organism-based; set-up: route oral, dose 10 mg/kg; settings: in vivo
[9] = Clearance in rat hepatocyte measured per 10^6 cells; format: ADME, cell-based; settings: hepatocytes
[10] = Toxicity in rat assessed as non-toxic AUC for liver bioactivation at 30 mg/kg; format: organism-based; settings: in vivo
[11] = AUC in Sprague-Dawley rat at 10 mg/kg, po; format: ADME, organism-based; set-up: dose 10 mg/kg; settings: in vivo
[12] = Unbound volume of distribution in rat at 3 mg/kg, iv; format: ADME, organism-based; settings: in vivo
[13] = Plasma protein binding in dog assessed as unbound fraction; format: ADME, cell-free, Canis lupus familiaris
[14] = Toxicity in rat assessed as non-toxic AUC for tissue toxicity at 30 mg/kg; format: organism-based; settings: in vivo
[15] = Dose normalized Cmax in Sprague-Dawley rat at 50 mg/kg, po; format: ADME, organism-based; settings: in vivo
[16] = Dose normalized Cmax in Sprague-Dawley rat at 30 mg/kg, po; format: ADME, organism-based; settings: in vivo
[17] = Oral bioavailability in dog at 1 mg/kg; format: ADME, organism-based, Canis lupus familiaris; settings: in vivo
[18] = MRT in rat at 1 mg/kg, iv; format: ADME, organism-based; settings: in vivo
[19] = Ex vivo inhibition of PAR-1 in cynomolgus monkey whole blood assessed as inhibition of TRAP-induced platelet aggregation at 1 mg/kg, po measured after 24 hrs; format: functional; settings: Macaca fascicularis
[20] = Oral bioavailability in cynomolgus monkey at 1 mg/kg,; format: ADME, organism-based, Macaca fascicularis; settings: in vivo
[21] = Volume of distribution in dog at 0.3 mg/kg, iv; format: ADME, organism-based, Canis lupus familiaris; settings: in vivo
[22] = AUC in Sprague-Dawley rat at 3 mg/kg, po; format: ADME, organism-based; set-up: dose 3 mg/kg; settings: in vivo
[23] = Dose normalized AUC in Sprague-Dawley rat at 50 mg/kg, po; format: ADME, organism-based; settings: in vivo
[24] = Clearance in dog hepatocyte measured per 10^6 cells; format: ADME, cell-based, Canis lupus familiaris; settings: hepatocytes
[25] = Dose normalized AUC in Sprague-Dawley rat at 3 mg/kg, po; format: ADME, organism-based; settings: in vivo
[26] = Volume of distribution in cynomolgus monkey at 0.3 mg/kg, iv; format: ADME, organism-based, Macaca fascicularis; settings: in vivo
[27] = Unbound clearance in cynomolgus monkey at 0.3 mg/kg, iv; format: ADME, organism-based, Macaca fascicularis; settings: in vivo
[28] = Oral bioavailability in rat at 10 mg/kg; format: ADME, organism-based; settings: in vivo
[29] = Cmax in Sprague-Dawley rat at 30 mg/kg, po; format: ADME, organism-based; set-up: route oral, dose 30 mg/kg; settings: in vivo
[30] = Clearance in rat at 3 mg/kg, iv; format: ADME, organism-based; settings: in vivo
[31] = Clearance in cynomolgus monkey at 0.3 mg/kg, iv; format: ADME, organism-based, Macaca fascicularis; settings: in vivo
[32] = Unbound volume of distribution in cynomolgus monkey at 0.3 mg/kg, iv; format: ADME, organism-based, Macaca fascicularis; settings: in vivo
[33] = MRT in dog at 0.3 mg/kg, iv; format: ADME, organism-based, Canis lupus familiaris; settings: in vivo
[34] = Clearance in mouse hepatocyte measured per 10^6 cells; format: ADME, cell-based; settings: hepatocytes
[35] = AUC in Sprague-Dawley rat at 50 mg/kg, po; format: ADME, organism-based; set-up: dose 50 mg/kg; settings: in vivo
[36] = Dose normalized Cmax in Sprague-Dawley rat at 10 mg/kg, po; format: ADME, organism-based; settings: in vivo
[37] = Dose normalized Cmax in Sprague-Dawley rat at 3 mg/kg, po; format: ADME, organism-based; settings: in vivo
[38] = Cmax in Sprague-Dawley rat at 3 mg/kg, po; format: ADME, organism-based; set-up: route oral, dose 3 mg/kg; settings: in vivo
[39] = Plasma protein binding in cynomolgus monkey assessed as unbound fraction; format: ADME, cell-free, Macaca fascicularis
[40] = Clearance in human hepatocyte measured per 10^6 cells; format: ADME, cell-based; settings: hepatocytes
[41] = AUC in Sprague-Dawley rat at 30 mg/kg, po; format: ADME, organism-based; set-up: dose 30 mg/kg; settings: in vivo
[42] = Cmax in Sprague-Dawley rat at 50 mg/kg, po; format: ADME, organism-based; set-up: route oral, dose 50 mg/kg; settings: in vivo
[43] = Ex vivo inhibition of PAR-1 in cynomolgus monkey whole blood assessed as inhibition of TRAP-induced platelet aggregation at 0.3 mg/kg, po measured after 24 hrs; format: functional; settings: Macaca fascicularis
[44] = molecular target: T1, Proteinase-activated receptor 1 (Homo sapiens, UniProt P25116); assay: Antagonist activity at human PAR-1 expressed in HEK293 cells assessed as reduction in TRAP induced calcium signal at 3 uM by FLIPR analysis; format: functional, cell-based
T1 sequence (P25116 whole entry): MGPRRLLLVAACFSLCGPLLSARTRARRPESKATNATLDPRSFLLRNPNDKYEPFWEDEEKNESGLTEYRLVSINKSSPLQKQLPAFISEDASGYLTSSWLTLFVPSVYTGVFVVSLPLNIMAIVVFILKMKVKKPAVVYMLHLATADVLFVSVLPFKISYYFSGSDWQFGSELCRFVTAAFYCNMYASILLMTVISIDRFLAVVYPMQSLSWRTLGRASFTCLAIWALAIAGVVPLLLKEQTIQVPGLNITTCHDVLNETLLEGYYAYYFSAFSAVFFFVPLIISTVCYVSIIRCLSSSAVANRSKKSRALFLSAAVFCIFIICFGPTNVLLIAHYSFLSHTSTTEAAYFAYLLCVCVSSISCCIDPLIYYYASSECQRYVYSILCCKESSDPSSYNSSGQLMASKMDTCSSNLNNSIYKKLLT

[45] = MRT in cynomolgus monkey at 1 mg/kg, iv; format: ADME, organism-based, Macaca fascicularis; settings: in vivo
[46] = Clearance in dog at 0.3 mg/kg, iv; format: ADME, organism-based, Canis lupus familiaris; settings: in vivo
[47] = Dose normalized AUC in Sprague-Dawley rat at 10 mg/kg, po; format: ADME, organism-based; settings: in vivo

Work on C[C@H]1OC(=O)[C@]2(N)CC(F)(F)[C@@H](C)[C@H](/C=C/c3ccc(-c4ccccc4C#N)cn3)[C@H]12 yielded a fraction unbound [1] of 0.09, an AUCt/dose [2] of 3.2 µM·h and a CL free [3] of 352 mL/min/kg. The Papp [4] was 38.3 ×10⁻⁶ cm/s, the Vdu [5] was 41 L/kg and the MRT [6] was 1.9 h. For the same molecule, the Vd [7] was 3.6 L/kg, the Cmax [8] was 5.6 µM and the CLint [9] was 13 µL/min/1e6 cells. The AUC [10] was 44 µM·h, the AUC [11] was 12.1 µM·h and the Vdu [12] was 41 L/kg. It also gave a fraction unbound [13] of 0.15, an AUC [14] of 44 µM·h and a Cmax/dose [15] of 0.56 µM. It also gave a Cmax/dose [16] of 0.4 µM, a bioavailability [17] of 100% and an MRT [18] of 1.4 h. For the same molecule, the inhibition in vivo at 1 mg/kg [19] was 100%, the bioavailability [20] was 37% and the Vd [21] was 6.3 L/kg. The AUC [22] was 1.31 µM·h, the AUCt/dose [23] was 3.8 µM·h and the CLint [24] was 2 µL/min/1e6 cells. For the same molecule, the AUCt/dose [25] was 0.44 µM·h, the Vd [26] was 2.5 L/kg and the CL free [27] was 12 mL/min/kg. The bioavailability [28] was 54%, the Cmax [29] was 12 µM and the clearance [30] was 31 mL/min/kg. It also gave a clearance [31] of 12 mL/min/kg, a Vdu [32] of 17 L/kg and an MRT [33] of 18 h. It also gave a CLint [34] of 3.3 µL/min/1e6 cells, an AUC [35] of 191 µM·h and a Cmax/dose [36] of 0.56 µM. The Cmax/dose [37] was 0.12 µM, the Cmax [38] was 0.36 µM and the fraction unbound [39] was 0.15. For the same molecule, the CLint [40] was 1.1 µL/min/1e6 cells, the AUC [41] was 97 µM·h and the Cmax [42] was 28 µM. It also gave an inhibition in vivo at 0.3 mg/kg [43] of 100%, an IC50 [44] of 7 nM and an MRT [45] of 24 h. For the same molecule, the clearance [46] was 5.9 mL/min/kg and the AUCt/dose [47] was 1.2 µM·h.
